Test results: the kinase profiling compilation of Christmann-Franck et al. (2016)

Target: MAP3K10 (human) (UniProt Q02779)
Test: radiometric filter-binding kinase assay, Kinase HotSpot
Settings: compound 0.5 µM; ATP 10 µM

Row | Structure (SMILES) | residual activity
1 | Cc1cc2ncc(-c3ccccc3)nc2cc1C | 97.8%
2 | Nc1n[nH]c2nnc(-c3c(-c4ccccc4)nn4ccccc34)cc12 | 90.7%

Target: NEK7 (human) (UniProt Q8TDX7)
Test: as above
Settings: compound 0.5 µM; ATP 10 µM

Row | Structure (SMILES) | residual activity
3 | O=C(NC(NC(=S)Nc1ccc(F)c([N+](=O)[O-])c1)C(Cl)(Cl)Cl)C(c1ccccc1)c1ccccc1 (configuration not stated) | 102%
4 | Cc1cc2ncc(-c3ccccc3)nc2cc1C | 102%
5 | Nc1n[nH]c2nnc(-c3c(-c4ccccc4)nn4ccccc34)cc12 | 95.3%

Target: STK16 (human) (UniProt O75716)
Test: as above
Settings: compound 0.5 µM; ATP 10 µM

Row | Structure (SMILES) | residual activity
6 | O=C(NC(NC(=S)Nc1ccc(F)c([N+](=O)[O-])c1)C(Cl)(Cl)Cl)C(c1ccccc1)c1ccccc1 (configuration not stated) | 99.4%
7 | Cc1cc2ncc(-c3ccccc3)nc2cc1C | 108%
8 | Nc1n[nH]c2nnc(-c3c(-c4ccccc4)nn4ccccc34)cc12 | 108%

Target: CDK3 CCNE1 (human) (UniProt Q00526+P24864)
Test: as above
Settings: compound 0.5 µM; ATP 10 µM

Row | Structure (SMILES) | residual activity
9 | O=C(NC(NC(=S)Nc1ccc(F)c([N+](=O)[O-])c1)C(Cl)(Cl)Cl)C(c1ccccc1)c1ccccc1 (configuration not stated) | 105%
10 | Cc1cc2ncc(-c3ccccc3)nc2cc1C | 96.7%
11 | Nc1n[nH]c2nnc(-c3c(-c4ccccc4)nn4ccccc34)cc12 | 96.8%

Target: BTK (human) (UniProt Q06187)
Sequence (Q06187 whole entry, looked up): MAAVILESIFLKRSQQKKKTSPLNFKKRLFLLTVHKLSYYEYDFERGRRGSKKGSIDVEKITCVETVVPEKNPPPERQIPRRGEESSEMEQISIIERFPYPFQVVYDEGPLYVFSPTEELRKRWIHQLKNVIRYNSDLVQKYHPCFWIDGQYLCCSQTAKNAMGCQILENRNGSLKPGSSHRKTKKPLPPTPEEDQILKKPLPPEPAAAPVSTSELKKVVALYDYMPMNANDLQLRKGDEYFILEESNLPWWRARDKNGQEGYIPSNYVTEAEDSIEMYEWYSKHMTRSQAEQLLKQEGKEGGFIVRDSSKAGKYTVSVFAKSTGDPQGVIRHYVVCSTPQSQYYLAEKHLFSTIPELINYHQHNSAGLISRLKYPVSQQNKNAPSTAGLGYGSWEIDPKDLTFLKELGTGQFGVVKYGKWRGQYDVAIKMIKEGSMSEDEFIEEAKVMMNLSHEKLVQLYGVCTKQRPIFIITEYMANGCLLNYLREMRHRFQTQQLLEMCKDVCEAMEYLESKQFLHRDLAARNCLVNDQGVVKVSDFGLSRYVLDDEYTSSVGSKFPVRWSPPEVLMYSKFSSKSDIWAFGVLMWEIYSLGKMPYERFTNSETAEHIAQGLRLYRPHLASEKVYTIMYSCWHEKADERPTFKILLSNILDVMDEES
Test: as above
Settings: compound 0.5 µM; ATP 10 µM

Row | Structure (SMILES) | residual activity
12 | O=C(NC(NC(=S)Nc1ccc(F)c([N+](=O)[O-])c1)C(Cl)(Cl)Cl)C(c1ccccc1)c1ccccc1 (configuration not stated) | 104%
13 | Cc1cc2ncc(-c3ccccc3)nc2cc1C | 94.8%
14 | Nc1n[nH]c2nnc(-c3c(-c4ccccc4)nn4ccccc34)cc12 | 93.6%

Target: CDK6 CCND3 (human) (UniProt P30281+Q00534)
Test: as above
Settings: compound 0.5 µM; ATP 10 µM

Row | Structure (SMILES) | residual activity
15 | O=C(NC(NC(=S)Nc1ccc(F)c([N+](=O)[O-])c1)C(Cl)(Cl)Cl)C(c1ccccc1)c1ccccc1 (configuration not stated) | 99.3%
16 | Cc1cc2ncc(-c3ccccc3)nc2cc1C | 86.7%
17 | Nc1n[nH]c2nnc(-c3c(-c4ccccc4)nn4ccccc34)cc12 | 90.4%

Target: RPS6KA1 KD1 KD2 (human) (UniProt Q15418)
Sequence (Q15418 whole entry, looked up): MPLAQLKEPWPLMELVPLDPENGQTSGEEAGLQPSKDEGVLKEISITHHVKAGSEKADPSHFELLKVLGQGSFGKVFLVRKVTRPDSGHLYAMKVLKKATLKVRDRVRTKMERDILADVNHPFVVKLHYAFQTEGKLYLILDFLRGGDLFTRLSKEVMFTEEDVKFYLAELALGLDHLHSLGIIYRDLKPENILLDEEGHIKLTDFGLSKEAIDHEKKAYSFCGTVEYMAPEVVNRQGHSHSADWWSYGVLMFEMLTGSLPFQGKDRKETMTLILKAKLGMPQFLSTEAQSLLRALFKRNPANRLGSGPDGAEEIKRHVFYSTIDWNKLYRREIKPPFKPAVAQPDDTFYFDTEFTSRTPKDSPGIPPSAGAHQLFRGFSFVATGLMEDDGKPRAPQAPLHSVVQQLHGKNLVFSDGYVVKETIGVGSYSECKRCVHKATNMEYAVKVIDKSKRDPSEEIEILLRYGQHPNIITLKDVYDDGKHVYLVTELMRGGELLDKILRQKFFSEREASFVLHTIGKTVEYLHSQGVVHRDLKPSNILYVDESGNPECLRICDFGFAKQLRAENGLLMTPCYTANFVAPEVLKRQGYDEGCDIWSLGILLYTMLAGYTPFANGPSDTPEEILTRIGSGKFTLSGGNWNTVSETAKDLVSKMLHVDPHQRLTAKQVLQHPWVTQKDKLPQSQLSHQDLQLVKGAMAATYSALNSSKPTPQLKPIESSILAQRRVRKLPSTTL
Test: as above
Settings: compound 0.5 µM; ATP 10 µM

Row | Structure (SMILES) | residual activity
18 | O=C(NC(NC(=S)Nc1ccc(F)c([N+](=O)[O-])c1)C(Cl)(Cl)Cl)C(c1ccccc1)c1ccccc1 (configuration not stated) | 105%
19 | Cc1cc2ncc(-c3ccccc3)nc2cc1C | 99.2%
20 | Nc1n[nH]c2nnc(-c3c(-c4ccccc4)nn4ccccc34)cc12 | 95.1%

Target: DAPK3 (human) (UniProt O43293)
Sequence (O43293 whole entry, looked up): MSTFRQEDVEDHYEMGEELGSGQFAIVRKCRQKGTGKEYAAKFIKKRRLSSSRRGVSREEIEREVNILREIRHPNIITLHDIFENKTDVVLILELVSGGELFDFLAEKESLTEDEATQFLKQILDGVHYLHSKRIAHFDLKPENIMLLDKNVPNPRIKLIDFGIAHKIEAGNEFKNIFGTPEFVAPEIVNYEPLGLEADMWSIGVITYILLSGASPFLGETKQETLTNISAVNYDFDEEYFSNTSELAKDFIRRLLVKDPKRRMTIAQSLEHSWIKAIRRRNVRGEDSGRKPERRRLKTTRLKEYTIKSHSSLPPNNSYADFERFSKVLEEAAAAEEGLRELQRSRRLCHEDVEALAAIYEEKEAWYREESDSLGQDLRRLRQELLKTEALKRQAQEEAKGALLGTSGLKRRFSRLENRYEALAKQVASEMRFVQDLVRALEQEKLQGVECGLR
Test: as above
Settings: compound 0.5 µM; ATP 10 µM

Row | Structure (SMILES) | residual activity
21 | O=C(NC(NC(=S)Nc1ccc(F)c([N+](=O)[O-])c1)C(Cl)(Cl)Cl)C(c1ccccc1)c1ccccc1 (configuration not stated) | 103%
22 | Cc1cc2ncc(-c3ccccc3)nc2cc1C | 90.3%
23 | Nc1n[nH]c2nnc(-c3c(-c4ccccc4)nn4ccccc34)cc12 | 102%

Target: MAP3K3 (human) (UniProt Q99759)
Test: as above
Settings: compound 0.5 µM; ATP 10 µM

Row | Structure (SMILES) | residual activity
24 | O=C(NC(NC(=S)Nc1ccc(F)c([N+](=O)[O-])c1)C(Cl)(Cl)Cl)C(c1ccccc1)c1ccccc1 (configuration not stated) | 118%
25 | Cc1cc2ncc(-c3ccccc3)nc2cc1C | 103%
26 | Nc1n[nH]c2nnc(-c3c(-c4ccccc4)nn4ccccc34)cc12 | 110%

Target: CAMK2A (human) (UniProt Q9UQM7)
Test: as above
Settings: compound 0.5 µM; ATP 10 µM

Row | Structure (SMILES) | residual activity
27 | O=C(NC(NC(=S)Nc1ccc(F)c([N+](=O)[O-])c1)C(Cl)(Cl)Cl)C(c1ccccc1)c1ccccc1 (configuration not stated) | 96%
28 | Cc1cc2ncc(-c3ccccc3)nc2cc1C | 98.4%
29 | Nc1n[nH]c2nnc(-c3c(-c4ccccc4)nn4ccccc34)cc12 | 102%

Target: STK25 (human) (UniProt O00506)
Test: as above
Settings: compound 0.5 µM; ATP 10 µM

Row | Structure (SMILES) | residual activity
30 | O=C(NC(NC(=S)Nc1ccc(F)c([N+](=O)[O-])c1)C(Cl)(Cl)Cl)C(c1ccccc1)c1ccccc1 (configuration not stated) | 96.2%
31 | Cc1cc2ncc(-c3ccccc3)nc2cc1C | 92.5%
32 | Nc1n[nH]c2nnc(-c3c(-c4ccccc4)nn4ccccc34)cc12 | 84.2%

Target: PRKX (human) (UniProt P51817)
Test: as above
Settings: compound 0.5 µM; ATP 10 µM

Row | Structure (SMILES) | residual activity
33 | O=C(NC(NC(=S)Nc1ccc(F)c([N+](=O)[O-])c1)C(Cl)(Cl)Cl)C(c1ccccc1)c1ccccc1 (configuration not stated) | 106%
34 | Cc1cc2ncc(-c3ccccc3)nc2cc1C | 97.9%
35 | Nc1n[nH]c2nnc(-c3c(-c4ccccc4)nn4ccccc34)cc12 | 101%

Target: CAMK1G (human) (UniProt Q96NX5)
Sequence (Q96NX5 whole entry, looked up): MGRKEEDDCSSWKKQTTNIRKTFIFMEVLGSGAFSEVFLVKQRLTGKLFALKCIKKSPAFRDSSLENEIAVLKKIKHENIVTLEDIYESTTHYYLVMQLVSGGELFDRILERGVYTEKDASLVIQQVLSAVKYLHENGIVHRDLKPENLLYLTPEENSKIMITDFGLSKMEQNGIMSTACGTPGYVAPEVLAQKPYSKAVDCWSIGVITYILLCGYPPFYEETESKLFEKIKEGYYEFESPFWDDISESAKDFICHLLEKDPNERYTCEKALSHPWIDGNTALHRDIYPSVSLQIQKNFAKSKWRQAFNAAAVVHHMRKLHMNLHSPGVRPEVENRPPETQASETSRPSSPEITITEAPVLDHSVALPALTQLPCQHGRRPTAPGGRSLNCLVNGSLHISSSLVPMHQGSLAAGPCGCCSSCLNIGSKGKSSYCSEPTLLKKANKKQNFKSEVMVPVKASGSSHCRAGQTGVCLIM
Test: as above
Settings: compound 0.5 µM; ATP 10 µM

Row | Structure (SMILES) | residual activity
36 | O=C(NC(NC(=S)Nc1ccc(F)c([N+](=O)[O-])c1)C(Cl)(Cl)Cl)C(c1ccccc1)c1ccccc1 (configuration not stated) | 102%
37 | Cc1cc2ncc(-c3ccccc3)nc2cc1C | 101%
38 | Nc1n[nH]c2nnc(-c3c(-c4ccccc4)nn4ccccc34)cc12 | 99.2%

Target: MINK1 (human) (UniProt Q8N4C8)
Test: as above
Settings: compound 0.5 µM; ATP 10 µM

Row | Structure (SMILES) | residual activity
39 | O=C(NC(NC(=S)Nc1ccc(F)c([N+](=O)[O-])c1)C(Cl)(Cl)Cl)C(c1ccccc1)c1ccccc1 (configuration not stated) | 110%
40 | Cc1cc2ncc(-c3ccccc3)nc2cc1C | 91.8%
41 | Nc1n[nH]c2nnc(-c3c(-c4ccccc4)nn4ccccc34)cc12 | 73%

Target: CDK4 CCND1 (human) (UniProt P24385+P11802)
Test: as above
Settings: compound 0.5 µM; ATP 10 µM

Row | Structure (SMILES) | residual activity
42 | O=C(NC(NC(=S)Nc1ccc(F)c([N+](=O)[O-])c1)C(Cl)(Cl)Cl)C(c1ccccc1)c1ccccc1 (configuration not stated) | 116%
43 | Cc1cc2ncc(-c3ccccc3)nc2cc1C | 101%
44 | Nc1n[nH]c2nnc(-c3c(-c4ccccc4)nn4ccccc34)cc12 | 89.2%

Target: CDK5 CDK5R1 p25 (human) (UniProt Q00535+Q15078)
Sequence (Q00535 whole entry, looked up): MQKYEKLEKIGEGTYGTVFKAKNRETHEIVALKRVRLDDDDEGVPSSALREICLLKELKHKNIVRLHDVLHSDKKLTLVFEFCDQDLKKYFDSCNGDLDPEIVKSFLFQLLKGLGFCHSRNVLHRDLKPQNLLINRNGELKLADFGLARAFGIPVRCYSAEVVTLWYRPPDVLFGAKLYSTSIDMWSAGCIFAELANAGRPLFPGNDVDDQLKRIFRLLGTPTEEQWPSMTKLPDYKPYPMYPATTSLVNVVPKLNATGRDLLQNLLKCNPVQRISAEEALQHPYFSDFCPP
Sequence (Q15078 whole entry, looked up): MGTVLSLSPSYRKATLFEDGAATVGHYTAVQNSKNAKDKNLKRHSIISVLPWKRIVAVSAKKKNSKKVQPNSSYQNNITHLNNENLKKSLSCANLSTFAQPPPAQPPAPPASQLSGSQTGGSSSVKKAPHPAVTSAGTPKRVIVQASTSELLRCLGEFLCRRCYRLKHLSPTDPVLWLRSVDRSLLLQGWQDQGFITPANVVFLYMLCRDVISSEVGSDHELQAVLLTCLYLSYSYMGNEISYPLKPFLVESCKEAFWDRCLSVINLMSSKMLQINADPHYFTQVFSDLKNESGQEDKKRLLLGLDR
Test: as above
Settings: compound 0.5 µM; ATP 10 µM

Row | Structure (SMILES) | residual activity
45 | O=C(NC(NC(=S)Nc1ccc(F)c([N+](=O)[O-])c1)C(Cl)(Cl)Cl)C(c1ccccc1)c1ccccc1 (configuration not stated) | 96.8%
46 | Cc1cc2ncc(-c3ccccc3)nc2cc1C | 96.6%
47 | Nc1n[nH]c2nnc(-c3c(-c4ccccc4)nn4ccccc34)cc12 | 101%

Target: CAMK2B (human) (UniProt Q13554)
Test: as above
Settings: compound 0.5 µM; ATP 10 µM

Row | Structure (SMILES) | residual activity
48 | O=C(NC(NC(=S)Nc1ccc(F)c([N+](=O)[O-])c1)C(Cl)(Cl)Cl)C(c1ccccc1)c1ccccc1 (configuration not stated) | 104%
49 | Cc1cc2ncc(-c3ccccc3)nc2cc1C | 101%
50 | Nc1n[nH]c2nnc(-c3c(-c4ccccc4)nn4ccccc34)cc12 | 102%

Target: FGFR4 (human) (UniProt P22455)
Sequence (P22455 whole entry, looked up): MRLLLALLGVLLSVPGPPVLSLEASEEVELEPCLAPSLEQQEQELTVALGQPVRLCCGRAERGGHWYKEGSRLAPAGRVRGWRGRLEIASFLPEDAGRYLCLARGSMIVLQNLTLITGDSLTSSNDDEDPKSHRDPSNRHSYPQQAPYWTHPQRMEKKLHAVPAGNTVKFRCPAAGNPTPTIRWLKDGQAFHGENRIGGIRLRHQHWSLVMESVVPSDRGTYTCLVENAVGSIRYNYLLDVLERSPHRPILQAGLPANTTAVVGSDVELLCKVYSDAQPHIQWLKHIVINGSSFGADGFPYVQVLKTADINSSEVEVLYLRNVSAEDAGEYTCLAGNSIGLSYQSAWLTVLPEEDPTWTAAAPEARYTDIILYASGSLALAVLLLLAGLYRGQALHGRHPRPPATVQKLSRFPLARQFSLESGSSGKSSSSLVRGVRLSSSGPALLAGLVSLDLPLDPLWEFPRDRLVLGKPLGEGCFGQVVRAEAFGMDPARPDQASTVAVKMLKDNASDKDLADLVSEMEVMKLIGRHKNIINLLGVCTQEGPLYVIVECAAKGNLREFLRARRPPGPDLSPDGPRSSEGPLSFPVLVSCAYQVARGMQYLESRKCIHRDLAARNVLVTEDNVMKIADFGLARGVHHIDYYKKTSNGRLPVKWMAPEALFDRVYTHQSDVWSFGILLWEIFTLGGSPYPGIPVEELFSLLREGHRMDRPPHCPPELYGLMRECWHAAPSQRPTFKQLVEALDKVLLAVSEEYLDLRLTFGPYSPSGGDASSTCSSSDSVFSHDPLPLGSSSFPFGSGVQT
Test: as above
Settings: compound 0.5 µM; ATP 10 µM

Row | Structure (SMILES) | residual activity
51 | O=C(NC(NC(=S)Nc1ccc(F)c([N+](=O)[O-])c1)C(Cl)(Cl)Cl)C(c1ccccc1)c1ccccc1 (configuration not stated) | 100%
52 | Cc1cc2ncc(-c3ccccc3)nc2cc1C | 77.2%
53 | Nc1n[nH]c2nnc(-c3c(-c4ccccc4)nn4ccccc34)cc12 | 104%

Target: CAMK2D (human) (UniProt Q13557)
Sequence (Q13557 whole entry, looked up): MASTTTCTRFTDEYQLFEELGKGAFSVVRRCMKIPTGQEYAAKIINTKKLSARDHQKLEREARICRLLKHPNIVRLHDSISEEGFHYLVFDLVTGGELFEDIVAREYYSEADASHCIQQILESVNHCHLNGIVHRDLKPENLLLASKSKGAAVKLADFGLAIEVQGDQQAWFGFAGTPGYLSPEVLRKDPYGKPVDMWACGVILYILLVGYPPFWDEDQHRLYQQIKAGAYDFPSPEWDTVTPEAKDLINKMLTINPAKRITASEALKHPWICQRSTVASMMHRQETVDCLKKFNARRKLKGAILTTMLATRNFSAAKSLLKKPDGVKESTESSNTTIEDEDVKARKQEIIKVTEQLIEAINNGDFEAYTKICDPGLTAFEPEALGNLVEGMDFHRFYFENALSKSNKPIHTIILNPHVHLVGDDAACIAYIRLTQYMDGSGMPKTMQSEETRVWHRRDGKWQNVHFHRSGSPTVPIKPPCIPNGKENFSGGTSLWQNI
Test: as above
Settings: compound 0.5 µM; ATP 10 µM

Row | Structure (SMILES) | residual activity
54 | O=C(NC(NC(=S)Nc1ccc(F)c([N+](=O)[O-])c1)C(Cl)(Cl)Cl)C(c1ccccc1)c1ccccc1 (configuration not stated) | 102%
55 | Cc1cc2ncc(-c3ccccc3)nc2cc1C | 88.1%
56 | Nc1n[nH]c2nnc(-c3c(-c4ccccc4)nn4ccccc34)cc12 | 96.5%

Target: CAMK2G (human) (UniProt Q13555)
Sequence (Q13555 whole entry, looked up): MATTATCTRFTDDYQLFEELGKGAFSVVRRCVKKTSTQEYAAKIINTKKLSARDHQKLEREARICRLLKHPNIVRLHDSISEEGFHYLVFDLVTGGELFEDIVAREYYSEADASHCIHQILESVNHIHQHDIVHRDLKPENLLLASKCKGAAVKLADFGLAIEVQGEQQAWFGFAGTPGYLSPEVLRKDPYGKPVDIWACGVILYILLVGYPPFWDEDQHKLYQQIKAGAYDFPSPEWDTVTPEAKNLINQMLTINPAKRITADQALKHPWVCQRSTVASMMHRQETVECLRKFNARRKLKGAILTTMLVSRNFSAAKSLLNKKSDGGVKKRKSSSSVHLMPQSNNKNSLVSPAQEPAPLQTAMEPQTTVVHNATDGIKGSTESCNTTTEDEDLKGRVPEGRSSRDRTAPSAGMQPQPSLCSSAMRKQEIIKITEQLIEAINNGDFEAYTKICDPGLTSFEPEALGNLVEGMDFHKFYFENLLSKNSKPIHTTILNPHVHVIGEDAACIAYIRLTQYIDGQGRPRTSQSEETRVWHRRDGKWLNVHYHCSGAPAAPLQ
Test: as above
Settings: compound 0.5 µM; ATP 10 µM

Row | Structure (SMILES) | residual activity
57 | O=C(NC(NC(=S)Nc1ccc(F)c([N+](=O)[O-])c1)C(Cl)(Cl)Cl)C(c1ccccc1)c1ccccc1 (configuration not stated) | 107%
58 | Cc1cc2ncc(-c3ccccc3)nc2cc1C | 105%
59 | Nc1n[nH]c2nnc(-c3c(-c4ccccc4)nn4ccccc34)cc12 | 96.7%

Target: MAPKAPK3 (human) (UniProt Q16644)
Test: as above
Settings: compound 0.5 µM; ATP 10 µM

Row | Structure (SMILES) | residual activity
60 | O=C(NC(NC(=S)Nc1ccc(F)c([N+](=O)[O-])c1)C(Cl)(Cl)Cl)C(c1ccccc1)c1ccccc1 (configuration not stated) | 106%
61 | Cc1cc2ncc(-c3ccccc3)nc2cc1C | 100%
62 | Nc1n[nH]c2nnc(-c3c(-c4ccccc4)nn4ccccc34)cc12 | 103%
